As usually defined, the half-life is the time needed for the level to fall by half in the phase considered. Higher therefore signals slow decline. What is called AUC(0-inf) is the area under the concentration-time curve extrapolated to infinity. A higher AUC(0-inf) goes with more exposure. In general, AUC(0-t) refers to the area under the concentration-time curve up to a stated or last time point. Read a high AUC(0-t) as more exposure. The term Cmax denotes the maximum level reached in the sampled fluid or tissue. As a reminder, the Tmax is the time at which the peak concentration occurs.

Structures are written as SMILES.

The values below come from paper PMC5735979, “Total Coumarins from Hydrangea paniculata Show Renal Protective Effects in Lipopolysaccharide-Induced Acute Kidney Injury via Anti-inflammatory and Antioxidant Activities” (Frontiers in Pharmacology, 2017).

The nature of data set [1]: Pharmacokinetics study after single oral dose of HP. The data set is classed as in vivo, C57BL/6 mice. Particulars: male, C57BL/6, mouse, in vivo, mice, n = 5. Here is the method:
All of the animals were fasted for 12 h before receiving HP and were then allowed to eat for 4 h after administration. The dosing solutions used for the animal studies were prepared by dissolving the required amounts of HP in distilled water. […] The plasma was separated and stored at 2–8°C until analysis. […] Louis, MO, USA) and then mixed with 180 μL of acetonitrile (Merck, Darmstadt, Germany) to precipitate protein. After centrifugation, aliquots (10 μL each) of the supernatant were used for analysis. […] The mobile phase consisted of solvent A [0.1% formic acid (Dikma Technologies, Inc., CA, USA) in water] and solvent B [0.1% formic acid in methanol (Merck)]. The analytes were eluted at a flow rate of 0.2 mL/min, with the following gradient elution: from 0 to 0.6 min, 20% B; linear increase to 95% B in 0.2 min; 95% B for 4 min, decrease to 20% B in 0.2 min; and stabilization at initial conditions for 6 min. The mass spectrometer was set for multiple reaction monitoring and was operated in a positive-ion mode with an electrospray ionization source. Nitrogen was used as the curtain gas and the collision gas. The ion-spray voltage was set at 5,500 V, and the gas temperature at 500°C.

In data set [2] the test system is streptozotocin-induced diabetic nephropathy. Also on record: method as in Zhang et al., 2012. Particulars: ref Zhang et al., 2012; cited from earlier work.
In data set [3] the test system is cationized BSA-induced membranous glomerulitis. Also on record: method as in Zhang et al., 2013. Particulars: ref Zhang et al., 2013; cited from earlier work.
The mark [4] stands for this setting: plasma, single oral dose of 50 mg/kg HP.

Turning to `O=c1ccc2ccc(O[C@@H]3O[C@H](CO)[C@@H](O)[C@H](O)[C@H]3O)cc2o1` [Skimmin, skimmin], in data set [1] (0.08 h after single oral dose of 50 mg/kg HP, mean ± SD, read-out: Blood drug concentration), the concentration at 0.08 h was 7.5 ± 2.94 µM. In addition, the concentration at 0.25 h in data set [1] (0.25 h after single oral dose of 50 mg/kg HP, mean ± SD, read-out: Blood drug concentration) was 14.2 ± 3.71 µM. Moreover, the concentration at 0.5 h in data set [1] (0.5 h after single oral dose of 50 mg/kg HP, mean ± SD, read-out: Blood drug concentration) worked out at 12.6 ± 2.12 µM. For the same molecule, the concentration at 1 h in data set [1] (1 h after single oral dose of 50 mg/kg HP, mean ± SD, read-out: Blood drug concentration) came to 7.41 ± 1.53 µM. For the same molecule, the concentration at 1.5 h in data set [1] (1.5 h after single oral dose of 50 mg/kg HP, mean ± SD, read-out: Blood drug concentration) worked out at 4.44 ± 0.89 µM. The concentration at 2 h in data set [1] (2 h after single oral dose of 50 mg/kg HP, mean ± SD, read-out: Blood drug concentration) was 3.64 ± 0.94 µM. Further, the concentration at 3 h in data set [1] (3 h after single oral dose of 50 mg/kg HP, mean ± SD, read-out: Blood drug concentration) came out at 2.37 ± 3.51 µM. Moreover, the concentration at 4 h in data set [1] (4 h after single oral dose of 50 mg/kg HP, mean ± SD, read-out: Blood drug concentration) is 1.16 ± 1.11 µM. Further, the concentration at 8 h in data set [1] (8 h after single oral dose of 50 mg/kg HP, mean ± SD, read-out: Blood drug concentration) was determined as 0.17 ± 0.22 µM. For the same molecule, the concentration at 12 h in data set [1] (12 h after single oral dose of 50 mg/kg HP, mean ± SD, read-out: Blood drug concentration) was found to be 0.05 ± 0.02 µM. This molecule also gave a half-life in data set [1] (elimination half-life, plasma, single oral dose of 50 mg/kg HP) of 1.55 h. For the same molecule, in data set [1] (setting [4]), the total exposure AUC(0-inf) was 23.4 µM·h, the AUC(0-t) stood at 23.3 µM·h, the peak level (Cmax) was 14.2 µM and the Tmax came to 0.25 h. Moreover, the MRT last in data set [1] (plasma, single oral dose of 50 mg/kg HP, read-out: MRT(0−t)) came out at 1.75 h. The MRT inf in data set [1] (plasma, single oral dose of 50 mg/kg HP, read-out: MRT(0−∞)) turned out to be 1.81 h. Moreover, the “progression of streptozotocin-induced diabetic nephropathy” value in data set [2] is given as “could slow the progression”. Moreover, the “progression of cationized BSA-induced membranous glomerulitis” value in data set [3] is on record as “could slow the progression”.
